Four compounds from paper PMC11195807, “Development of a multi-targeted chemotherapeutic approach based on G-quadruplex stabilisation and carbonic anhydrase inhibition” (Journal of Enzyme Inhibition and Medicinal Chemistry, 2024) can be followed below.

As usually defined, the melting point is the temperature of the solid-liquid transition.

For series [1], the system named is GQ structures. The series is described as follows: BG4 immunofluorescence of GQ foci, HeLa cells in normoxia. Type of series: cell-based. To be noted: 24 h, 35.0 µM S-4,0, 40.0 µM C-4,2, 37.5 µM C-5,2, 2 µM RHPS4, over DMSO. The text has this:
After measuring the viability of HeLa cells upon treatment with the newly synthesised MTDLs mentioned above, we probed the capability of the three most cytotoxic ones (S-4,0, C-4,2, and C-5,2) to affect the formation of GQ structures by immunofluorescence (IF) microscopy, using the BG4 antibody that selectively recognises the GQ structures. As it can be noticed in Figure 6, the fluorescence intensity of the total number of GQ foci increased by around 30% after treatment with both the coumarin derivative C-4,2 and the reference GQ binder RHPS4, whereas it was not affected by S-4,0 and C-5,2. […] On the contrary, the levels of GQ structures were influenced neither by the treatment with the sulphonamide S-4,0 nor by the coumarin C-5,2, despite their ability to thermally stabilise some GQ-forming sequences in vitro.
Figure 6. (A) Representative fields showing G4 foci formation detected by immunofluorescence in HeLa cells treated for 24 h with 35.0 µM S-4,0, 40.0 µM C-4,2, and 37.5 µM C-5,2 or an equivalent amount of vehicle (0.1% DMSO). As a positive control, cells were treated with 2 µM RHPS4 (a well-established GQ ligand)[68] for 24 h. Scale bar: 10 µm. Upper panels: the merged channels of BG4-stained GQ structures (magenta) and Hoechst-counterstained nuclei (grey) are reported. Lower panels: enlargements from the pictures in the upper panels. (B) Quantitative analysis of the fluorescence intensity of the total number of GQ foci. An average of 50 cells were screened for each condition and the results are expressed as a fold change of fluorescence intensity (anti-GQ signal) over the negative control (DMSO). Histograms show the mean ± SD of three independent experiments. The statistical significance was calculated using a one-way ANOVA test on GraphPad Prism 8.0.2 (ns: not significant, **: p < 0.01).
For the IF experiments in the presence of normal oxygen levels, HeLa cells were seeded on sterile coverslips, in a 24-well plate, at a density of 90,000 cells per well, and incubated overnight. Then, cells were treated with a sublethal concentration of each investigated MTDL or an equivalent amount of vehicle (0.1% DMSO), for 24 h. As positive control, cells were exposed for 24 h to 2 µM RHPS4. As regards the IF experiments under hypoxic conditions, HeLa were seeded on sterile coverslips, in a 24-well plate, at a density of 50,000 cells per well, and incubated overnight. […] From there, the cellular and nuclear foci were segmented, and their number or fluorescence intensity was quantified by using the Image Analysis package of ZEISS ZEN 3.1 software.

Each structure is given as a SMILES string. Counter-ions that a name gives are not always drawn.

`COc1ccc2cc3[n+](cc2c1OCCCCCn1cc(COc2ccc(S(N)(=O)=O)cc2)nn1)CCc1cc2c(cc1-3)OCO2` (as salt: phosphate) [Compound 33, 10-Methoxy-9-((5–(4-((4-sulfamoylphenoxy)methyl)-1H-1,2,3-triazol-1-yl)pentyl)oxy)-5,6-dihydro-[1,3]dioxolo[4,5-g]isoquinolino[3,2-a]isoquinolin-7-ium hexafluorophosphate]: the melting point lay within 168 to 171 °C.

Regarding `COc1ccc2cc3[n+](cc2c1OCCn1cc(COc2ccc(S(N)(=O)=O)cc2)nn1)CCc1cc2c(cc1-3)OCO2` (as salt: phosphate) [Compound 27, 10-Methoxy-9–(2-(4-((4-sulfamoylphenoxy)methyl)-1H-1,2,3-triazol-1-yl)ethoxy)-5,6-dihydro-[1,3]dioxolo[4,5-g]isoquinolino[3,2-a]isoquinolin-7-ium hexafluorophosphate], the melting point was 183 to 185 °C.

With `COS(=O)(=O)[O-].Cc1cc2c3c([n+](C)c4ccc(F)cc4c3c1)-c1cc(F)ccc1N2C` [RHPS4, reference compound], the “increase of fluorescence intensity of the total number of GQ foci” value in series [1] is listed as “around 30%”.

Compound `COc1ccc2cc3[n+](cc2c1OCCCCn1cc(COc2ccc(S(N)(=O)=O)cc2)nn1)CCc1cc2c(cc1-3)OCO2` (as salt: phosphate) [Compound 31, 10-Methoxy-9–(4-(4-((4-sulfamoylphenoxy)methyl)-1H-1,2,3-triazol-1-yl)butoxy)-5,6-dihydro-[1,3]dioxolo[4,5-g]isoquinolino[3,2-a]isoquinolin-7-ium hexafluorophosphate] gave a melting point of 165 to 168 °C.
